Experimental data as given in the supplement of paper PMC12463676, “Small-molecule dissolution of stress granules by redox modulation benefits ALS models” (Nature Chemical Biology, 2025).

Columns and labels:
potassium arsenate = compound: O=[As]([O-])(O)O.[K+] [potassium arsenate]; test: thermal stability z-score vs DMSO; higher = more thermally stabilized by treatment; conditions: HeLa; arsenate concentration 1 mM
Protocol: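 Cellular thermal proteome profiling in HeLa cells treated with 1 mM arsenate for 1 h (DMSO pretreatment), heated to ten temperatures (37-66.3 °C). Soluble protein was quantified by TMT mass spectrometry relative to DMSO controls; the thermal stability score was transformed to a z-score; mean of n = 3 experiments.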

lipoamide = compound: NC(=O)CCCCC1CCSS1 [lipoamide]; test: as above; conditions: HeLa, lipoamide concentration 100 µM
Protocol: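 Cellular thermal proteome profiling in HeLa cells. Cells were treated with 100 µM lipoamide for 1 h, with or without 1 mM arsenate for a further 1 h, then heated to ten temperatures (37-66.3 °C), and soluble protein was quantified by TMT mass spectrometry relative to 0.1% DMSO controls. The thermal stability score (sum of log2 fold changes minus the abundance score) was transformed to a z-score; mean of n = 3 experiments.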

[1] = arsenate co-treatment: 1 mM arsenate 1 h
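Further: each temperature applied for 3 min, abundance score taken as mean log2 fold change at the two lowest temperatures, z-score obtained by mean subtraction and division by SD.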

UniProt O95994, sequence (O95994 whole entry): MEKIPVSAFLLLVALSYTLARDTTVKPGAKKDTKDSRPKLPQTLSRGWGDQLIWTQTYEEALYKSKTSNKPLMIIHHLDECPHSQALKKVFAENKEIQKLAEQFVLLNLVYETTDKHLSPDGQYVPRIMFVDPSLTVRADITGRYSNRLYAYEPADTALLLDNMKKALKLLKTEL
UniProt Q99943, sequence (Q99943 whole entry): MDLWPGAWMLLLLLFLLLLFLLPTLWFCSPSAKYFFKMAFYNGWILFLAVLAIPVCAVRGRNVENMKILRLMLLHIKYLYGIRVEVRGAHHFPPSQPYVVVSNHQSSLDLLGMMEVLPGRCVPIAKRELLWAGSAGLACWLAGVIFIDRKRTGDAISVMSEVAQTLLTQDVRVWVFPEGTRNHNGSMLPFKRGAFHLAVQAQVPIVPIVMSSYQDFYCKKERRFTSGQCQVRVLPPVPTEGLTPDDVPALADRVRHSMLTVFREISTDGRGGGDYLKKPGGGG
UniProt O00170, sequence (O00170 whole entry): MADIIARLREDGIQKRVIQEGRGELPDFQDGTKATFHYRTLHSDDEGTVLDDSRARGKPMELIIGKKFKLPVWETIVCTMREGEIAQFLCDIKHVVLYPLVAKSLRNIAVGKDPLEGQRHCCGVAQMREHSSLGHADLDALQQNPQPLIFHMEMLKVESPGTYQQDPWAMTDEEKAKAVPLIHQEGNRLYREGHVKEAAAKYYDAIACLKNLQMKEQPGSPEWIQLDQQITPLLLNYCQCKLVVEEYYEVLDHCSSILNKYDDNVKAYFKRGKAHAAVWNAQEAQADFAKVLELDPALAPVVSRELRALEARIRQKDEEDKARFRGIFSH
UniProt Q13155, sequence (Q13155 whole entry): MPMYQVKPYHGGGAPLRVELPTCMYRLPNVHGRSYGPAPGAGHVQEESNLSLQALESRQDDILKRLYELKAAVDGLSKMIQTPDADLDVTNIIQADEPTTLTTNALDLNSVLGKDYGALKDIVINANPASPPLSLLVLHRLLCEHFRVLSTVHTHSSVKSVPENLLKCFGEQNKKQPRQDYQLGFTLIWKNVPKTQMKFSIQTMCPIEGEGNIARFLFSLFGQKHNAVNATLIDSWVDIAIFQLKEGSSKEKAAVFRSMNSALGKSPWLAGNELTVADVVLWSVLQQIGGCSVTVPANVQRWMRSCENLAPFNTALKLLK
UniProt O00116, sequence (O00116 whole entry): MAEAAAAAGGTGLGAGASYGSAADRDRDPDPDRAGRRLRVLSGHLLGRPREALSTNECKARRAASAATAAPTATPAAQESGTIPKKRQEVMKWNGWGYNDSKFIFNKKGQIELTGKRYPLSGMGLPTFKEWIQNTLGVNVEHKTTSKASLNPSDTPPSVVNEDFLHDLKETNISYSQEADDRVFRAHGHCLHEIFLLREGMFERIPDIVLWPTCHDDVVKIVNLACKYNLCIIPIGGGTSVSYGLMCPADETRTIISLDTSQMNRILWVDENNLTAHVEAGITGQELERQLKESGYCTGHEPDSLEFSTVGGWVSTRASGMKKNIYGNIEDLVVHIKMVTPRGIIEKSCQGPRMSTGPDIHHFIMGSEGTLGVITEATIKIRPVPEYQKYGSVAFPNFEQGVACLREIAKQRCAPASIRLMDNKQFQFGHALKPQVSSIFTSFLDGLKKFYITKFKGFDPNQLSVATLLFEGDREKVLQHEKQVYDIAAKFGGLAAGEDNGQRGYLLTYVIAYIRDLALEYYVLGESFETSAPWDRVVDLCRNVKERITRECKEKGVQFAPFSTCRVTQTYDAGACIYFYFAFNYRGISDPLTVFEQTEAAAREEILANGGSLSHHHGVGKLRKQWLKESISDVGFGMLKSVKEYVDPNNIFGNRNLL
UniProt Q96HN2, sequence (Q96HN2 whole entry): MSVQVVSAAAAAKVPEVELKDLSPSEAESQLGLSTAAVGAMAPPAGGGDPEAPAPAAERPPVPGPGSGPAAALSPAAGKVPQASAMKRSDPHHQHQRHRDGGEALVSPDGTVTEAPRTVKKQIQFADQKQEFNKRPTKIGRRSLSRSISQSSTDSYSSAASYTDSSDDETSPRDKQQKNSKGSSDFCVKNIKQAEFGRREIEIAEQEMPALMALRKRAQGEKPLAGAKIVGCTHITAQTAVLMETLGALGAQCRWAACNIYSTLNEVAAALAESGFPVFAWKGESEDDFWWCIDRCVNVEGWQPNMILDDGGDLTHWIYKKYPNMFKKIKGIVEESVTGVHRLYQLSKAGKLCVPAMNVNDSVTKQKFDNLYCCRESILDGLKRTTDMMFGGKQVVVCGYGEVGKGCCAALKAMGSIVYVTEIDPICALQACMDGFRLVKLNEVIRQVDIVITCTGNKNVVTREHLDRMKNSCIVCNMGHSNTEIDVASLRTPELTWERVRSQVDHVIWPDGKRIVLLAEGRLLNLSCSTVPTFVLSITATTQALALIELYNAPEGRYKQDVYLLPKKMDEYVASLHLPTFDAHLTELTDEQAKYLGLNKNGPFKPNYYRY
UniProt O00468, sequence (O00468 whole entry): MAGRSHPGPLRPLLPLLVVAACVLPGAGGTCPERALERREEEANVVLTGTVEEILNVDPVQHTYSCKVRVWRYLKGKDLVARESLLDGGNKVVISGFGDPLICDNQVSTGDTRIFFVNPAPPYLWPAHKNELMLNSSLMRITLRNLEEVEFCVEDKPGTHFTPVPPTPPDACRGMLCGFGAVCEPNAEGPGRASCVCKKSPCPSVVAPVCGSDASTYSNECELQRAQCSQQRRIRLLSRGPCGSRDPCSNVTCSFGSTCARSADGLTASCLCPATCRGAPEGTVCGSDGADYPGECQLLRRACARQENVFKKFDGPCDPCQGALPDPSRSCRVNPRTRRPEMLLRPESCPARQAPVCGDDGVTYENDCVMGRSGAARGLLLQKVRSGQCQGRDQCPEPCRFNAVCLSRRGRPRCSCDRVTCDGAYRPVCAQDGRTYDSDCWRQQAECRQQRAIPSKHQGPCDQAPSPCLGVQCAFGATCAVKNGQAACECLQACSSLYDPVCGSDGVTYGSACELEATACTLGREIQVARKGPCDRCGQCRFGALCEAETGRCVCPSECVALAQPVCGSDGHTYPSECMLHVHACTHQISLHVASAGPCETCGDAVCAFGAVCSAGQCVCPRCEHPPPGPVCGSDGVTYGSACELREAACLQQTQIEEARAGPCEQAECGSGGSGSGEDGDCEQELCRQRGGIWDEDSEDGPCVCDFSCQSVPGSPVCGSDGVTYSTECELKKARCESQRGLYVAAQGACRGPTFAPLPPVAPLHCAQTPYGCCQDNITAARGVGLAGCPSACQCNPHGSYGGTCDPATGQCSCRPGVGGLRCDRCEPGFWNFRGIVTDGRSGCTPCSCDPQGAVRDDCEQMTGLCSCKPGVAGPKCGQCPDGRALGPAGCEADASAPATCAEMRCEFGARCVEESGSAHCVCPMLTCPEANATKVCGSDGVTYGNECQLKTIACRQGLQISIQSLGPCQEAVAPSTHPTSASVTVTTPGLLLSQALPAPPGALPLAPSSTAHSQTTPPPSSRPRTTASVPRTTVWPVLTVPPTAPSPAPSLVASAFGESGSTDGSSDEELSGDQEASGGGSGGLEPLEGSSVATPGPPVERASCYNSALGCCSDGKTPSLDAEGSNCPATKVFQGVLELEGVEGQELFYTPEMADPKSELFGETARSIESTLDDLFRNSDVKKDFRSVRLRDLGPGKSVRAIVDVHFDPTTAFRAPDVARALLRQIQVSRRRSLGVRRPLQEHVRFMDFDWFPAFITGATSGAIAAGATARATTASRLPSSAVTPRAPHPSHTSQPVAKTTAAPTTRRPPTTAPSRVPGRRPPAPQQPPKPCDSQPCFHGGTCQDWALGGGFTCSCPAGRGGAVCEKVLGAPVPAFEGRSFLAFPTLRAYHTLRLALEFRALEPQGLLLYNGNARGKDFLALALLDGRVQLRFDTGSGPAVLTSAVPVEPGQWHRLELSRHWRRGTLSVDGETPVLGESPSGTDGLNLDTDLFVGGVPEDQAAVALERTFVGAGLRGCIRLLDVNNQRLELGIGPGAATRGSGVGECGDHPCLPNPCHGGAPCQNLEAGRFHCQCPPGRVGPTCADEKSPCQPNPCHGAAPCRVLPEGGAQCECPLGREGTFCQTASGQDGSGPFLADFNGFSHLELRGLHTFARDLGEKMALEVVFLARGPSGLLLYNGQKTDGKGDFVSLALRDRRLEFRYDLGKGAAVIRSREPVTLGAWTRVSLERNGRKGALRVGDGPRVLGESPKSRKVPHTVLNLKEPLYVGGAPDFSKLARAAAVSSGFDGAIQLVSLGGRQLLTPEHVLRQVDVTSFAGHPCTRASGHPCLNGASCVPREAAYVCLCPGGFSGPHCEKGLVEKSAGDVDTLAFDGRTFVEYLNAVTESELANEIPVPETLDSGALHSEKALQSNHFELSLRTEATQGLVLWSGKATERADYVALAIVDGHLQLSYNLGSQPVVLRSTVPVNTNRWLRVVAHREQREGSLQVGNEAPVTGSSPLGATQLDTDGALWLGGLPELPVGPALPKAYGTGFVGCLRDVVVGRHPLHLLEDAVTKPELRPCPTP
UniProt O95433, sequence (O95433 whole entry): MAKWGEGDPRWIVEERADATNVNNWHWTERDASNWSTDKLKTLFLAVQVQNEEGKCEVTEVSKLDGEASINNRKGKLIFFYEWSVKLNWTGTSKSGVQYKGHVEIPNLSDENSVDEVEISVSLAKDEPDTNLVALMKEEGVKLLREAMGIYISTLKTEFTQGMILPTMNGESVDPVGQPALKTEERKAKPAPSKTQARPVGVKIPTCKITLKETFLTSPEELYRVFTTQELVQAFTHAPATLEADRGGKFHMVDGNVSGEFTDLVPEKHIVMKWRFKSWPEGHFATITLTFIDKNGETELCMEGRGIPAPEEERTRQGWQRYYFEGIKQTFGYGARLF
UniProt Q6RW13, sequence (Q6RW13 whole entry): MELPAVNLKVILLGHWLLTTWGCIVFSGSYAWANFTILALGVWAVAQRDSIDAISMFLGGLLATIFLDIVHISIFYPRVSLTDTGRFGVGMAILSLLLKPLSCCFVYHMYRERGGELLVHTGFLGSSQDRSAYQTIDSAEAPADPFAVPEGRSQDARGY

Target | thermal stability z-score (potassium arsenate) | thermal stability z-score (lipoamide; [1]) | thermal stability z-score (lipoamide; arsenate co-treatment: none)
AGAP3 (UniProt Q96P47) | -0.25 | 0.0887 | -0.377
AGFG1 (UniProt P52594) | -0.387 | -0.348 | -0.424
AGFG2 (UniProt O95081) | -0.791 | -0.423 | -0.0283
AGK (UniProt Q53H12) | 0.573 | 0.541 | 0.38
AGL (UniProt P35573) | 0.0621 | 0.414 | 0.398
AGMAT (UniProt Q9BSE5) | 0.92 | 0.292 | 0.565
AGO1 (UniProt Q9UL18) | -0.337 | -0.0919 | -0.396
AGO2 (UniProt Q9UKV8) | -0.204 | 0.826 | 0.402
AGPAT1 (UniProt Q99943) | 0.0795 | -0.0471 | -0.591
AGPAT2 (UniProt O15120) | 0.392 | -0.401 | 0.198
AGPAT3 (UniProt Q9NRZ7) | -0.114 | -0.336 | 0.305
AGPAT5 (UniProt Q9NUQ2) | -0.259 | -0.478 | -0.94
AGPS (UniProt O00116) | -0.854 | -1.96 | -1.23
AGR2 (UniProt O95994) | -0.355 | -2.84 | -2.57
AGRN (UniProt O00468) | 0.582 | -0.718 | -1.6
AGTRAP (UniProt Q6RW13) | 1.66 | 0.719 | 0.743

Target | thermal stability z-score (potassium arsenate) | thermal stability z-score (lipoamide; [1]) | thermal stability z-score (lipoamide; arsenate co-treatment: none)
AHCY (UniProt P23526) | -1.82 | 0.488 | 0.146
AHCYL1 (UniProt O43865) | -6.61 | 0.156 | -0.134
AHCYL2 (UniProt Q96HN2) | -1.74 | 0.295 | 0.547
AHNAK2 (UniProt Q8IVF2) | 1.42 | 0.924 | 0.899
AHNAK (UniProt Q09666) | 2.03 | 1.35 | 1.69
AHSA1 (UniProt O95433) | 0.423 | 0.722 | 0.671
AIDA (UniProt Q96BJ3) | -0.0785 | -0.00864 | 0.00569
AIF1L (UniProt Q9BQI0) | -0.374 | -0.218 | -0.305
AIFM1 (UniProt O95831) | 0.186 | -0.464 | -0.558
AIFM2 (UniProt Q9BRQ8) | 0.776 | 0.556 | -0.298
AIM1 | 0.00488 | -0.151 | -0.209
AIMP1 (UniProt Q12904) | 0.717 | 0.288 | 0.163
AIMP2 (UniProt Q13155) | 0.702 | -0.616 | -0.263
AIP (UniProt O00170) | -2.08 | -0.0398 | -0.833
AJUBA (UniProt Q96IF1) | -0.562 | -0.32 | -0.207
